The source of these data is patent publication US20250144053A1, “A MIXTURE OF UREA, BIURET AND NITRATE AS A DIETARY NON-PROTEIN NITROGEN-SOURCE FOR RUMINANTS AND USES THEREOF” (Yara International ASA, priority 2022, published 2025).

Test [1] has as its system ruminal fluid (rumen microbes). The test can be described thus: In vitro methane production in batch culture (Example 1). The format is cell-based, Angus crossbred steers. The conditions noted are these: corn silage-based diet. How it is done:
The in vitro incubations were conducted on three separate days (replicates). A representative sample of digesta was collected from different places in the rumen of ruminally cannulated steers and strained through 4 layers of cheesecloth, placed in pre-warmed thermos containers, and transported to the laboratory within 30 minutes after the collection. In the laboratory, the ruminal fluid from the two steers was maintained under constant CO2-flux and was combined in equal proportions. This combined ruminal fluid was mixed with McDougall's buffer (McDougall, 1948) with and without 0.077 g/liter of 10 wt. % ammonium sulfate enriched with ^15N in relation 1:4, and it was used as an inoculum. […] At the end of the 24 hours incubation, the final pH was recorded, the bottles were placed on ice to prevent further microbial fermentation and two 10-ml samples were collected and acidified by adding 20 μl of a 20 vol/vol % of H2SO4-solution and were frozen at minus 20° C. until further analysis. […]
The amount of methane produced was determined by measuring total gas production and the contribution of methane to it. The production of gas was recorded using an Ankom Gas Monitoring System from Ankom Technologies. […] A gas subsample was analyzed to measure methane concentration and calculate the total methane production during the fermentation. […]

In test [2] the test system is crossbred yearling steers. The test can be described thus: Animal growth performance with NPN supplementation (Example 2). The format is in vivo. An excerpt:
A total of 72 crossbred yearling steers [303 kg±29 kg initial body weight (BW) were stratified by body weight (BW) and randomly allocated to three treatments. All steers consumed a basal diet of corn silage, cotton-gin trash, and a premix of vitamins and minerals.
The steers were housed in pens (8 steers/pen, 3 pens/treatment). The steers were supplemented with three different NPN-sources on an isonitrogenous basis, considering as reference the N provided by urea when included at 1 wt. % of the diet in dry matter (DM-basis.
In Table 5, the composition of the basal diet supplemented with three different types of NPN, i.e. urea (Urea) (46% N, Yara International), a mixture of urea and biuret (UB) (41% N) and a mixture of urea, biuret and nitrate according to the present disclosure (“UBN”) (35% N, 21.3% NO3) is shown.
From day −17 to day −16 relative to the beginning of the experimental period, the steers received 20% of their total supplemental NPN.
From day −15 to day −12 relative to the beginning of the experimental period, the steers received 40% of their total supplemental NPN.
From day −11 to day −8 relative to the beginning of the experimental period, the steers received 60% of their total supplemental NPN.
From day −7 to day −3 relative to the beginning of the experimental period, the steers received 80% of their total supplemental NPN.
From day −2 to the beginning of the experimental period (day 0), the steers received 100% of their total supplemental NPN.
The gain to feed ratio (G: F) was computed as the ratio of the average daily gain (ADG) to daily dry matter intake (DMI). The feed intake was recorded daily. The individual intake was determined via the GrowSafe® intake monitoring system. In cattle management, GrowSafe Systems is a commonly used tool to closely monitor individual animal feeding data using radio frequency identification (RFID) tag technology. The animals are equipped with a unique RFID tag that is read by the feed bunks each time the animal lowers its head into the bunk to consume feed. Average daily weight gain (ADG) and feed efficiency were calculated during the performance evaluation. The ADG was determined by the difference between the final BW and the initial BW divided by the number of days of the performance evaluation (56 days). The initial BW was calculated as the average unshrunk BW of heifers on days 16 and 17. The final BW was the average unshrunk BW measured on days 72 and 73. The unshrunk BW was obtained every 14 days.
In Table 6, the effect of NPN supplementation with Urea, UB and UBN on growth performance is shown. More in particular, the initial and the final BW and the ADG, all expressed in kg, the dry matter intake (DMI) expressed in kg/day and in percentage of BW, the gain to feed ratio (G:F) expressed in kg/kg, the net energy of gain (NEg) expressed in Mcal/kg of DM and the plasma urea nitrogen (PUN) expressed in […] are shown.

The structures appear in SMILES notation.

For `NC(N)=O` [Urea, urea], the “Methane production, mM/g OMd” value in test [1] (per g organic matter digested) amounted to 6.86 mM/g OMd. Further, the “Methane production, mM/g OMi” value in test [1] (per g organic matter incubated) was found to be 1.23 mM/g OMi. Besides, the ADG in test [2] (days 0-14) is 0.78 kg; in test [2] (days 0-28), 0.81 kg. Besides, the “G:F” value was determined as 0.10 kg/kg in test [2] (days 0-14), 0.11 kg/kg in test [2] (days 0-28), 0.14 kg/kg in test [2] (days 0-42) and 0.14 kg/kg in test [2] (days 0-56). For the same molecule, the NEg in test [2] (net energy of gain) was 0.55 Mcal/kg of DM.
